In brackets after ≈: the same amount, converted by molar mass.
Key:
Assay in all cases: Antifungal activity, MIC by disc (diffusion) method
[1] = system: C. parapsilosis; type: cell-based, Candida parapsilosis; conditions: Lodderomyces parapsilosis, YMG agar, 24 hr at 28° C., read-out: MIC (minimum inhibitory concentration) C. parapsilosis
Description: (§1) Measurement Method of Antifungal Activity in Various Compounds
(§2) The minimum inhibitory concentration (MIC) was measured by a disc method (diffusion method). The disc method is one kind of the diffusion method, and is a method in which filter paper (disc) impregnated with an antifungal substance at a given concentration is placed on an agar medium (test plate) coated with a test bacterium and cultivated. The disc absorbs water in the medium, diffuses the antifungal substance and forms a given concentration gradient. As a result, the test bacterium forms a growth inhibition zone (circle) in the periphery of the disc, and the level of sensitivity to the antifungal substance is determined from the diameter of the inhibition circle.
(§3) Using the aforementioned method, MIC of various compounds was measured.
(§4) i: In a 100 mL flask, 20 mL of YMG or Mueller Hinton medium is produced.
(§5) ii: A loopful of the test bacterium is dissolved in the medium.
(§6) iii: The medium is cultured at 200 rpm for 24 hr in a rotary shaker set to 28° C.
(§7) i: In a 300 mL flask, 100 mL of YMG or Mueller Hinton agar medium (low melting point agar) is produced.
(§8) ii: After cooling to 37° C.-40° C., preculture medium (1 mL) is added and the mixture is agitated.
(§9) iii: The mixture is dispensed to a square petri dish (size: 100*150*17 mm) by 20 mL each.
(§10) iv: The dish is stood at room temperature until the agar is solidified.
(§11) i: The compound is diluted in ½ dilution series in 10 stages (timely changed according to compound), 50 μL of solution/pulp at each dilution stage is produced, the organic solvent is dried at room temperature and placed on a test plate.
(§12) ii: After culturing T. rubrum for 48 hr and other test bacteria for 24 hr at 28° C. in an incubator, the size of the inhibition circle was measured.
(§13) The medium composition for culture which was used for the aforementioned preculture is shown below.
(§14) [Medium Compositions for Preculture and Test Plate]
(§15) <<YMG Medium>>: For Fungus
(§16) Agar, powder 0.8% * added only when producing test plate

[2] = system: A. fumigatus; type: cell-based; conditions: Aspergillus fumigatus, YMG agar, 24 hr at 28° C., read-out: MIC (minimum inhibitory concentration) A. fumigatus
Description: as §1, §2, §3, §4, §5, §6, §7, §8, §9, §10, §11, §12, §13, §14, §15, §16

[3] = system: Saccharomyces; type: cell-based; conditions: YMG agar, 24 hr at 28° C., read-out: MIC (minimum inhibitory concentration) Saccharomyces
Description: as §1, §2, §3, §4, §5, §6, §7, §8, §9, §10, §11, §12, §13, §14, §15, §16

[4] = system: T. rubrum; type: cell-based; conditions: Trichophyton rubrum, YMG agar, 48 hr at 28° C., read-out: MIC (minimum inhibitory concentration) T. rubrum
Description: as §1, §2, §3, §4, §5, §6, §7, §8, §9, §10, §11, §12, §13, §14, §15, §16

[5] = system: T. mentagrophytes; type: cell-based; conditions: Trichophyton mentagrophytes, YMG agar, 24 hr at 28° C., read-out: MIC (minimum inhibitory concentration) T. mentagrophytes
Description: as §1, §2, §3, §4, §5, §6, §7, §8, §9, §10, §11, §12, §13, §14, §15, §16

| MIC [1] [µg/mL] | MIC [2] [µg/mL] | MIC [3] [µg/mL] | MIC [4] [µg/mL] | MIC [5] [µg/mL] | Compound |
| --- | --- | --- | --- | --- | --- |
| 8 (≈ 37.5 µM) | 8 (≈ 37.5 µM) | 8 (≈ 37.5 µM) | 2 (≈ 9.38 µM) | 2 (≈ 9.38 µM) | CC12ON1S(=O)(=O)Oc1ccccc12 (stereo not shown) [II-1j] |
| 8 (≈ 37.7 µM) | 8 (≈ 37.7 µM) | 8 (≈ 37.7 µM) | 2 (≈ 9.42 µM) | 2 (≈ 9.42 µM) | CC12ON1S(=O)(=O)Nc1ccccc12 (stereo not shown) [II-1k] |
| 4 (≈ 17.8 µM) | 4 (≈ 17.8 µM) | 4 (≈ 17.8 µM) | 1 (≈ 4.46 µM) | 1 (≈ 4.46 µM) | N#Cc1ccc2c(c1)C1ON1S(=O)(=O)O2 (stereo not shown) [II-1g] |
| 4 (≈ 20.7 µM) | 4 (≈ 20.7 µM) | 4 (≈ 20.7 µM) | 2 (≈ 10.4 µM) | 2 (≈ 10.4 µM) | CCC1OS(=O)(=O)N2OC12CC (stereo not shown) [II-3b] |
| 4 (≈ 16.4 µM) | 4 (≈ 16.4 µM) | 4 (≈ 16.4 µM) | 1 (≈ 4.1 µM) | 1 (≈ 4.1 µM) | O=[N+]([O-])c1ccc2c(c1)C1ON1S(=O)(=O)O2 (stereo not shown) [II-1e] |
| 8 (≈ 31.7 µM) | 8 (≈ 31.7 µM) | 8 (≈ 31.7 µM) | 2 (≈ 7.93 µM) | 2 (≈ 7.93 µM) | CC1=C(C)C2(c3ccccc3)ON2S(=O)(=O)N1 (stereo not shown) [II-2d] |
| 4 (≈ 14.9 µM) | 4 (≈ 14.9 µM) | 4 (≈ 14.9 µM) | 1 (≈ 3.73 µM) | 1 (≈ 3.73 µM) | O=S1(=O)N=C2C(=COc3ccc(F)cc32)C2ON21 (stereo not shown) [II-6b] |
| 8 (≈ 25.9 µM) | 8 (≈ 25.9 µM) | 8 (≈ 25.9 µM) | 2 (≈ 6.48 µM) | 2 (≈ 6.48 µM) | O=S1(=O)Nc2ccc(Cl)cc2C2(c3ccccc3)ON21 (stereo not shown) [II-1l] |
| 4 (≈ 14.9 µM) | 4 (≈ 14.9 µM) | 4 (≈ 14.9 µM) | 1 (≈ 3.73 µM) | 1 (≈ 3.73 µM) | O=S1(=O)Oc2c(Cl)cc(Cl)cc2C2ON21 (stereo not shown) [II-1h] |
| 4 (≈ 14.4 µM) | 4 (≈ 14.4 µM) | 4 (≈ 14.4 µM) | 1 (≈ 3.6 µM) | 1 (≈ 3.6 µM) | O=S1(=O)Oc2ccc(Br)cc2C2ON21 (stereo not shown) [II-1c] |
| 8 (≈ 46.2 µM) | 8 (≈ 46.2 µM) | 8 (≈ 46.2 µM) | 2 (≈ 11.6 µM) | 2 (≈ 11.6 µM) | O=S1(=O)N2OC2c2nccn21 (stereo not shown) [II-5a] |
| 8 (≈ 31.2 µM) | 8 (≈ 31.2 µM) | 8 (≈ 31.2 µM) | 2 (≈ 7.8 µM) | 2 (≈ 7.8 µM) | O=S1(=O)N=C(CCc2ccc(F)cc2)C2ON21 (stereo not shown) [II-4c] |
| 16 (≈ 90.8 µM) | 16 (≈ 90.8 µM) | 16 (≈ 90.8 µM) | 2 (≈ 11.4 µM) | 2 (≈ 11.4 µM) | CC1=CC2(C)ON2S(=O)(=O)N1 (stereo not shown) [II-2b] |

Further lines, the compound ahead of its results:

| Compound | MIC [1] [µg/mL] | MIC [2] [µg/mL] | MIC [3] [µg/mL] | MIC [4] [µg/mL] | MIC [5] [µg/mL] |
| --- | --- | --- | --- | --- | --- |
| CC1=CC(c2ccccc2)=NS(=O)(=O)N1 [I-2c] | 8 (≈ 36 µM) | 8 (≈ 36 µM) | 8 (≈ 36 µM) | 2 (≈ 9 µM) | 2 (≈ 9 µM) |
| O=S1(=O)N=C(c2ccccc2)c2cc(Cl)ccc2N1 [I-1l] | 8 (≈ 27.3 µM) | 8 (≈ 27.3 µM) | 8 (≈ 27.3 µM) | 2 (≈ 6.83 µM) | 2 (≈ 6.83 µM) |
| O=S1(=O)N=CC(CCc2ccc(Cl)cc2)=N1 [I-4d] | 8 (≈ 31.2 µM) | 8 (≈ 31.2 µM) | 8 (≈ 31.2 µM) | 2 (≈ 7.79 µM) | 2 (≈ 7.79 µM) |
| N#Cc1ccc2c(c1)C=NS(=O)(=O)O2 [I-1g] | 4 (≈ 19.2 µM) | 4 (≈ 19.2 µM) | 4 (≈ 19.2 µM) | 1 (≈ 4.8 µM) | 1 (≈ 4.8 µM) |
| O=S1(=O)N=CC(CCc2ccc(F)cc2)=N1 [I-4c] | 8 (≈ 33.3 µM) | 8 (≈ 33.3 µM) | 8 (≈ 33.3 µM) | 2 (≈ 8.32 µM) | 2 (≈ 8.32 µM) |
| CC1=NS(=O)(=O)OC1C (stereo not shown) [I-3a] | 4 (≈ 26.8 µM) | 4 (≈ 26.8 µM) | 4 (≈ 26.8 µM) | 2 (≈ 13.4 µM) | 2 (≈ 13.4 µM) |
| O=S1(=O)N=Cc2cc(Cl)ccc2O1 [I-1b] | 4 (≈ 18.4 µM) | 4 (≈ 18.4 µM) | 4 (≈ 18.4 µM) | 1 (≈ 4.59 µM) | 1 (≈ 4.59 µM) |
| O=S1(=O)N=Cc2cc(F)ccc2O1 [I-1a] | 4 (≈ 19.9 µM) | 4 (≈ 19.9 µM) | 4 (≈ 19.9 µM) | 1 (≈ 4.97 µM) | 1 (≈ 4.97 µM) |
| O=S1(=O)N=Cc2cc(Br)ccc2O1 [I-1c] | 4 (≈ 15.3 µM) | 4 (≈ 15.3 µM) | 4 (≈ 15.3 µM) | 1 (≈ 3.82 µM) | 1 (≈ 3.82 µM) |
| CC1=NS(=O)(=O)Oc2ccccc21 [I-1j] | 8 (≈ 40.6 µM) | 8 (≈ 40.6 µM) | 8 (≈ 40.6 µM) | 2 (≈ 10.1 µM) | 2 (≈ 10.1 µM) |
| O=S1(=O)N=C(c2ccc(Cl)cc2)CO1 [I-3d] | 8 (≈ 34.5 µM) | 8 (≈ 34.5 µM) | 8 (≈ 34.5 µM) | 2 (≈ 8.63 µM) | 2 (≈ 8.63 µM) |
| O=S1(=O)N=Cc2cccn21 [I-5b] | 16 (≈ 102 µM) | 16 (≈ 102 µM) | 16 (≈ 102 µM) | 4 (≈ 25.6 µM) | 4 (≈ 25.6 µM) |
| COC(=O)c1ccc2c(c1)C=NS(=O)(=O)O2 [I-1f] | 4 (≈ 16.6 µM) | 4 (≈ 16.6 µM) | 4 (≈ 16.6 µM) | 1 (≈ 4.15 µM) | 1 (≈ 4.15 µM) |

Reference: patent US10980813B2, “Antifungal composition” (SEED RESEARCH INSTITUTE CO., LTD., priority 2017, dated 2021)
